Measurements from patent publication US20080234262A1 (Wyeth, priority 2007, published 2008).

Legend:
prostate line LNCap = assay: In vitro cell culture growth assay (MTS), LNCap; format: cell-based, human; details: LNCap cells, three days after drug treatment;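 further: viable cell density read by absorbance at 490 nm, growth expressed as percent of vehicle-treated cells on the same plate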
breast line MDA468 = assay: In vitro cell culture growth assay (MTS), MDA468; format: cell-based, human; details: MDA468 cells, three days after drug treatment
Outline: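 Steps: plate cells; add inhibitors the next day; incubate 3 days; add MTS dye, which viable cells convert metabolically; measure absorbance at 490 nm; calculate percent of control growth relative to vehicle-treated cells in the same plate.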

PI3K = PI3K (Homo sapiens, UniProt P42336); assay: Fluorescence polarization assay for PI3K; format: biochemical; details: PI3Kα; read-out: PI3Kα IC50;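 further: PI3K kinase reaction on PIP2 with ATP, 30-60 min, product sensed by GST-GRP with red probe in fluorescence polarization (mP), controls without enzyme and at zero time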
Chain of PI3K (P42336 whole entry): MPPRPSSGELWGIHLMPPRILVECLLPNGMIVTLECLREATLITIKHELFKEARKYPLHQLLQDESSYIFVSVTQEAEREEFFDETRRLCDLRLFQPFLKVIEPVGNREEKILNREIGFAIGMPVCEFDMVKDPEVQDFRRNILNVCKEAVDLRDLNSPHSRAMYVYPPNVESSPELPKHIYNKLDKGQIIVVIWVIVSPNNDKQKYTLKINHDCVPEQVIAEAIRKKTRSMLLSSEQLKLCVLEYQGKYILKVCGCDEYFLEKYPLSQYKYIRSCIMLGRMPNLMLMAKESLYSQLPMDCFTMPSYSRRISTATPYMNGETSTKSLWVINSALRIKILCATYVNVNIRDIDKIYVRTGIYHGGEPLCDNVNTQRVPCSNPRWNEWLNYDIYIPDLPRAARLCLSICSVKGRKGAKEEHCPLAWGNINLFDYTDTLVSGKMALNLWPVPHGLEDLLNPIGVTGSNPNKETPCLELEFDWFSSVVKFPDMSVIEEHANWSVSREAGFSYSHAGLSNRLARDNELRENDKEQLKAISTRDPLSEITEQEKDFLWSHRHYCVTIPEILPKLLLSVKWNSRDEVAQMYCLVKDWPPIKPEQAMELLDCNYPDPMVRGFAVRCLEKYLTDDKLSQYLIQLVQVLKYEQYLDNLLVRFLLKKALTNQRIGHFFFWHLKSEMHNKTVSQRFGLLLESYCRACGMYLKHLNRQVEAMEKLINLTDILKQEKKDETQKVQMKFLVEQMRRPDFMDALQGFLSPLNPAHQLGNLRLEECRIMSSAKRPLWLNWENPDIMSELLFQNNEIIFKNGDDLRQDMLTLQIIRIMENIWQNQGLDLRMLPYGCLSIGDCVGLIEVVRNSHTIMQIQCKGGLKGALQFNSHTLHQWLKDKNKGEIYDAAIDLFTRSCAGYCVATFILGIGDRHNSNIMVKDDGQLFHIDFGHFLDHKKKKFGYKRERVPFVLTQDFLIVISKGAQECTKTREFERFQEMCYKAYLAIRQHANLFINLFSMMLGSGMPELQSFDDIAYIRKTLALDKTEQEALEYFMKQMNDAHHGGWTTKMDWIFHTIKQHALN
Chain of PI3K (P27986 whole entry partner): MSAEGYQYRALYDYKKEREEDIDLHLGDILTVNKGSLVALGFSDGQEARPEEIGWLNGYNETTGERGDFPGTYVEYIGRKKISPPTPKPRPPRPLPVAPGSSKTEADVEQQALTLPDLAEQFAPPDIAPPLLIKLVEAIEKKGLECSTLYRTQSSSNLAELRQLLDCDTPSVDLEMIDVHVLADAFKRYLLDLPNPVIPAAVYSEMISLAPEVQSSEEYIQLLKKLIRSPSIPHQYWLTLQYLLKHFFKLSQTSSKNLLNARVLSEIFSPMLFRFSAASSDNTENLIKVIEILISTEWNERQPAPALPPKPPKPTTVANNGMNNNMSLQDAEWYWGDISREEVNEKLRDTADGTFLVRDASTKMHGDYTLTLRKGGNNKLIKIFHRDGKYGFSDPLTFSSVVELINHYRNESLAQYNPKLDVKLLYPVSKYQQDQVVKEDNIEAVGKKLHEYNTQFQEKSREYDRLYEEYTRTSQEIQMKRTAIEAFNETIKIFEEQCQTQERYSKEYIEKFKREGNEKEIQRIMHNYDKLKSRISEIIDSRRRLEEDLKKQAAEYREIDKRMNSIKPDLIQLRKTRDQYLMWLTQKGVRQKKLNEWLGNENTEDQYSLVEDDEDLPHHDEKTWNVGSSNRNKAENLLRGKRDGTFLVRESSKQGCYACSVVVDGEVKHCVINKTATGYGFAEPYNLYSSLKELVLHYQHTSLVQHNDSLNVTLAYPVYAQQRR

For `CNC(=O)Nc1ccc(-c2nc(N3CCOCC3)c3cnn(C4CCN(C(=O)c5cccc(F)c5)CC4)c3n2)cc1` [Compound 603, 1-(4-{1-[1-(3-fluorobenzoyl)piperidin-4-yl]-4-morpholin-4-yl-1H-pyrazolo[3,4-d]pyrimidin-6-yl}phenyl)-3-methylurea], the IC50 (prostate line LNCap; Homo sapiens, LNCaP, 72 h) was under 27 nM, the IC50 (breast line MDA468; Homo sapiens, 72 h) was 80 nM and the IC50 (PI3K) was 88 nM.

In the case of `O=C(NCCO)Nc1ccc(-c2nc(N3CCOCC3)c3cnn(C4CCN(CC(F)(F)F)CC4)c3n2)cc1` [Compound 784, 1-(2-hydroxyethyl)-3-(4-{4-morpholin-4-yl-1-[1-(2,2,2-trifluoroethyl)piperidin-4-yl]-1H-pyrazolo[3,4-d]pyrimidin-6-yl}phenyl)urea], the IC50 (prostate line LNCap; Homo sapiens, LNCaP, 72 h) is reported as 100 nM, the IC50 (breast line MDA468; Homo sapiens, 72 h) is reported as 1050 nM and the IC50 (PI3K) is reported as 380 nM.

In the case of `COC(=O)N1CCC(n2ncc3c(N4CCOCC4)nc(-c4ccc(NC(=O)Nc5ccc(CCNCCO)cc5)cc4)nc32)CC1` [Compound 921, methyl 4-[6-(4-{[(4-{2-[(2-hydroxyethyl)amino]ethyl}phenyl)carbamoyl]amino}phenyl)-4-morpholin-4-yl-1H-pyrazolo[3,4-d]pyrimidin-1-yl]piperidine-1-carboxylate], the IC50 (prostate line LNCap; Homo sapiens, LNCaP, 72 h) is reported as 1 nM, the IC50 (breast line MDA468; Homo sapiens, 72 h) is reported as 120 nM and the IC50 (PI3K) is reported as 12 nM.

Work on `COC(=O)N1CCC(n2ncc3c(N4CCOCC4)nc(-c4ccc(NC(=O)Nc5ccc(F)cc5F)cc4)nc32)CC1` [Compound 861, methyl 4-[6-(4-{[(2,4-difluorophenyl)carbamoyl]amino}phenyl)-4-morpholin-4-yl-1H-pyrazolo[3,4-d]pyrimidin-1-yl]piperidine-1-carboxylate] yielded an IC50 (prostate line LNCap; Homo sapiens, LNCaP, 72 h) of 110 nM, an IC50 (breast line MDA468; Homo sapiens, 72 h) of 580 nM and an IC50 (PI3K) of 250 nM.

Work on `CNC(=O)Nc1ccc(-c2nc(N3CCOCC3)c3cnn(C4CCN(Cc5cncc(F)c5)CC4)c3n2)cc1` [Compound 637, 1-[4-(1-{1-[(5-fluoropyridin-3-yl)methyl]piperidin-4-yl}-4-morpholin-4-yl-1H-pyrazolo[3,4-d]pyrimidin-6-yl)phenyl]-3-methylurea] yielded an IC50 (prostate line LNCap) of 110 nM, an IC50 (breast line MDA468) of 550 nM and an IC50 (PI3K) of 153 nM.

In the case of `CCNC(=O)Nc1ccc(-c2nc(N3CCOCC3)c3cnn(C4CCN(Cc5ccccc5)CC4)c3n2)cc1F` [Example 349, 1-{4-[1-(1-benzylpiperidin-4-yl)-4-morpholin-4-yl-1H-pyrazolo[3,4-d]pyrimidin-6-yl]-2-fluorophenyl}-3-ethylurea], the IC50 (prostate line LNCap; Homo sapiens, LNCaP, 72 h) is reported as 230 nM, the IC50 (breast line MDA468; Homo sapiens, 72 h) is reported as 2500 nM and the IC50 (PI3K) is reported as 485 nM.

In the case of `COC(=NC#N)Nc1ccc(-c2nc(N3CCOCC3)c3cnn(C4CCN(Cc5cccnc5)CC4)c3n2)cc1` [Example 410, methyl N′-cyano-N-(4-{4-morpholin-4-yl-1-[1-(pyridin-3-ylmethyl)piperidin-4-yl]-1H-pyrazolo[3,4-d]pyrimidin-6-yl}phenyl)imidocarbamate], the IC50 (prostate line LNCap; Homo sapiens, LNCaP, 72 h) is reported as 2200 nM, the IC50 (breast line MDA468; Homo sapiens, 72 h) is reported as 1300 nM and the IC50 (PI3K) is reported as 593 nM.

Work on `O=C(Nc1ccc(-c2nc(N3CCOCC3)c3cnn(C4CCN(C(=O)c5cccnc5)CC4)c3n2)cc1)NC1CC1` [Example 415, 1-cyclopropyl-3-(4-{4-morpholin-4-yl-1-[1-(pyridin-3-ylcarbonyl)piperidin-4-yl]-1H-pyrazolo[3,4-d]pyrimidin-6-yl}phenyl)urea] yielded an IC50 (prostate line LNCap; Homo sapiens, LNCaP, 72 h) of 370 nM, an IC50 (breast line MDA468; Homo sapiens, 72 h) of 700 nM and an IC50 (PI3K) of 357 nM.

With `CCCOC(=O)N1CCC(n2ncc3c(N4CCOCC4)nc(-c4ccc(NC(=O)NCC)cc4)nc32)CC1` [Compound 852, propyl 4-(6-{4-[(ethylcarbamoyl)amino]phenyl}-4-morpholin-4-yl-1H-pyrazolo[3,4-d]pyrimidin-1-yl)piperidine-1-carboxylate] the IC50 (prostate line LNCap; Homo sapiens, LNCaP, 72 h) was 80 nM, the IC50 (breast line MDA468; Homo sapiens, 72 h) was 510 nM and the IC50 (PI3K) was 577 nM.

`NCC(=O)Nc1ccc(-c2nc(N3CCOCC3)c3cn[nH]c3n2)cc1` [Compound 282, N-[4-(4-morpholin-4-yl-1H-pyrazolo[3,4-d]pyrimidin-6-yl)phenyl]glycinamide] was tested, and the IC50 (prostate line LNCap; Homo sapiens, LNCaP, 72 h) was 9000 nM, the IC50 (breast line MDA468; Homo sapiens, 72 h) was 11000 nM and the IC50 (PI3K) was 128 nM.

Work on `COC(=O)N1CCC(n2ncc3c(N4CCOCC4)nc(-c4ccc(NC(=O)Nc5ccc(CCN6CCCCC6)cc5)cc4)nc32)CC1` [Compound 915, methyl 4-{4-morpholin-4-yl-6-[4-({[4-(2-piperidin-1-ylethyl)phenyl]carbamoyl}amino)phenyl]-1H-pyrazolo[3,4-d]pyrimidin-1-yl}piperidine-1-carboxylate] yielded an IC50 (prostate line LNCap; Homo sapiens, LNCaP, 72 h) of 0.77 nM, an IC50 (breast line MDA468; Homo sapiens, 72 h) of 25 nM and an IC50 (PI3K) of 26 nM.

For `CNC(=S)Nc1ccc(-c2nc(N3CCOCC3)c3cnn(C4CCN(C(=O)OC)CC4)c3n2)cc1` [Compound 742, methyl 4-[6-(4-{[(methylamino)carbonothioyl]amino}phenyl)-4-morpholin-4-yl-1H-pyrazolo[3,4-d]pyrimidin-1-yl]piperidine-1-carboxylate], the IC50 (prostate line LNCap; Homo sapiens, LNCaP, 72 h) was 50 nM, the IC50 (breast line MDA468; Homo sapiens, 72 h) was 220 nM and the IC50 (PI3K) was 153 nM.

For `CNC(=O)Nc1ccc(-c2nc(N3CCOCC3)c3cnn(C4CCN(C(=O)c5cnccc5C)CC4)c3n2)cc1` [Compound 663, 1-methyl-3-[4-(1-{1-[(4-methylpyridin-3-yl)carbonyl]piperidin-4-yl}-4-morpholin-4-yl-1H-pyrazolo[3,4-d]pyrimidin-6-yl)phenyl]urea], the IC50 (prostate line LNCap) was 320 nM, the IC50 (breast line MDA468) was 430 nM and the IC50 (PI3K) was 230 nM.

`CN(C)CC(=O)Nc1ccc(-c2nc(N3CCOCC3)c3cn[nH]c3n2)cc1` [Compound 527, N^2,N^2-dimethyl-N-[4-(4-morpholin-4-yl-1H-pyrazolo[3,4-d]pyrimidin-6-yl)phenyl]glycinamide] was tested, and the IC50 (prostate line LNCap; Homo sapiens, LNCaP, 72 h) was 7000 nM, the IC50 (breast line MDA468; Homo sapiens, 72 h) was 18000 nM and the IC50 (PI3K) was 2270 nM.

`CNC(=NC#N)Nc1ccc(-c2nc(N3CCOCC3)c3cnn(C4CCN(Cc5cccnc5)CC4)c3n2)cc1` [Example 407, 2-cyano-1-methyl-3-(4-{4-morpholin-4-yl-1-[1-(pyridin-3-ylmethyl)piperidin-4-yl]-1H-pyrazolo[3,4-d]pyrimidin-6-yl}phenyl)guanidine] was tested, and the IC50 (prostate line LNCap; Homo sapiens, LNCaP, 72 h) was 1700 nM, the IC50 (breast line MDA468; Homo sapiens, 72 h) was 3800 nM and the IC50 (PI3K) was 774 nM.

`CC(C)(C)OC(=O)N1CCC(n2ncc3c(N4CCOCC4)nc(-c4ccc(NC(=O)Nc5ccc(CO)cc5)cc4)nc32)CC1` [Compound 953, tert-butyl 4-{6-[4-({[4-(hydroxymethyl)phenyl]carbamoyl}amino)phenyl]-4-morpholin-4-yl-1H-pyrazolo[3,4-d]pyrimidin-1-yl}piperidine-1-carboxylate] gave an IC50 (prostate line LNCap; Homo sapiens, LNCaP, 72 h) of 0.8 nM, an IC50 (breast line MDA468; Homo sapiens, 72 h) of 14 nM and an IC50 (PI3K) of 7 nM.

Work on `C=CCNC(=O)Nc1ccc(-c2nc(N3CCOCC3)c3cnn(C4CCN(Cc5ccccc5)CC4)c3n2)cc1` [Example 263, 1-allyl-3-{4-[1-(1-benzylpiperidin-4-yl)-4-morpholin-4-yl-1H-pyrazolo[3,4-d]pyrimidin-6-yl]phenyl}urea] yielded an IC50 (prostate line LNCap; Homo sapiens, LNCaP, 72 h) of 250 nM, an IC50 (breast line MDA468; Homo sapiens, 72 h) of 1800 nM and an IC50 (PI3K) of 268 nM.

`CN(C)CC=CC(=O)N1CCC(n2ncc3c(N4CCOCC4)nc(-c4ccc5[nH]ccc5c4)nc32)CC1` [Compound 487, 4-{4-[6-(1H-indol-5-yl)-4-morpholin-4-yl-1H-pyrazolo[3,4-d]pyrimidin-1-yl]piperidin-1-yl}-N,N-dimethyl-4-oxobut-2-en-1-amine] was tested, and the IC50 (prostate line LNCap; Homo sapiens, LNCaP, 72 h) was 1000 nM, the IC50 (breast line MDA468; Homo sapiens, 72 h) was 2000 nM and the IC50 (PI3K) was 480 nM.

In the case of `CC#CCOC(=O)N1CCC(n2ncc3c(N4CCOCC4)nc(-c4ccc(NC(=O)NC)cc4)nc32)CC1` [Compound 801, but-2-yn-1-yl 4-(6-{4-[(methylcarbamoyl)amino]phenyl}-4-morpholin-4-yl-1H-pyrazolo[3,4-d]pyrimidin-1-yl)piperidine-1-carboxylate], the IC50 (prostate line LNCap; Homo sapiens, LNCaP, 72 h) is reported as 31 nM, the IC50 (breast line MDA468; Homo sapiens, 72 h) is reported as 120 nM and the IC50 (PI3K) is reported as 50 nM.

With `CNCCNC(=O)Nc1ccc(-c2nc(N3CCOCC3)c3cnn(C4CCN(C(=O)c5cccnc5)CC4)c3n2)cc1` [Example 346, 1-[2-(methylamino)ethyl]-3-(4-{4-morpholin-4-yl-1-[1-(pyridin-3-ylcarbonyl)piperidin-4-yl]-1H-pyrazolo[3,4-d]pyrimidin-6-yl}phenyl)urea] the IC50 (prostate line LNCap; Homo sapiens, LNCaP, 72 h) was 5000 nM, the IC50 (breast line MDA468; Homo sapiens, 72 h) was 9000 nM and the IC50 (PI3K) was 45 nM.

`CNC(=O)Nc1ccc(-c2nc(N3CCOC(C)C3)c3cnn(C4CCN(C(=O)OC)CC4)c3n2)cc1` (stereo not drawn) [Compound 841, methyl 4-[6-{4-[(methylcarbamoyl)amino]phenyl}-4-(2-methylmorpholin-4-yl)-1H-pyrazolo[3,4-d]pyrimidin-1-yl]piperidine-1-carboxylate] gave an IC50 (prostate line LNCap; Homo sapiens, LNCaP, 72 h) of 150 nM, an IC50 (breast line MDA468; Homo sapiens, 72 h) of 500 nM and an IC50 (PI3K) of 268 nM.

In the case of `CNC(=O)Nc1ccc(-c2nc(N3CCOCC3)c3cnn(C4CCN(C(=O)NC)CC4)c3n2)cc1` [Compound 722, N-methyl-4-(6-{4-[(methylcarbamoyl)amino]phenyl}-4-morpholin-4-yl-1H-pyrazolo[3,4-d]pyrimidin-1-yl)piperidine-1-carboxamide], the IC50 (prostate line LNCap) is reported as 2200 nM, the IC50 (breast line MDA468) is reported as 1800 nM and the IC50 (PI3K) is reported as 148 nM.

`CCONC(=O)Nc1ccc(-c2nc(N3CCOCC3)c3cnn(C4CCN(Cc5ccccc5)CC4)c3n2)cc1` [Example 287, 1-{4-[1-(1-benzylpiperidin-4-yl)-4-morpholin-4-yl-1H-pyrazolo[3,4-d]pyrimidin-6-yl]phenyl}-3-ethoxyurea] was tested, and the IC50 (prostate line LNCap; Homo sapiens, LNCaP, 72 h) was 680 nM, the IC50 (breast line MDA468; Homo sapiens, 72 h) was 200 nM and the IC50 (PI3K) was 273 nM.

`O=C(C1CCCCC1)N1CCC(n2ncc3c(N4CCOCC4)nc(-c4cccc(O)c4)nc32)CC1` [Example 26] was tested, and the IC50 (prostate line LNCap; Homo sapiens, LNCaP, 72 h) was 1300 nM, the IC50 (breast line MDA468; Homo sapiens, 72 h) was 4000 nM and the IC50 (PI3K) was 68 nM.

For `CC(=O)Nc1cccc(-c2nc(N3CCOCC3)c3cnn(-c4ccccc4)c3n2)c1` [Compound 115], the IC50 (prostate line LNCap; Homo sapiens, LNCaP, 72 h) was 5200 nM, the IC50 (breast line MDA468; Homo sapiens, 72 h) was 9000 nM and the IC50 (PI3K) was 357 nM.

Molecule `COC(=O)Nc1ccc(-c2nc(N3CCOCC3)c3cnn(C4CCN(C(=O)c5ccccc5OC)CC4)c3n2)cc1` [Example 446, methyl (4-{1-[1-(2-methoxybenzoyl)piperidin-4-yl]-4-morpholin-4-yl-1H-pyrazolo[3,4-d]pyrimidin-6-yl}phenyl)carbamate] has an IC50 (prostate line LNCap; Homo sapiens, LNCaP, 72 h) of 350 nM, an IC50 (breast line MDA468; Homo sapiens, 72 h) of 900 nM and an IC50 (PI3K) of 888 nM.
